# Measured values taken from patent US5045559A, “Treatment of skin disorders” (priority 1988, dated 1991).
# Like-named read-outs stand apart in the source and are kept apart here.
# Columns and labels:
# [1] = In vivo delivery to human stratum corneum (tritiated esters applied to arms of volunteers, tape stripping); conditions: 18 hours; for Pyroglutamic acid delivered, Ethanol base: 1% w/v in anhydrous ethanol; for Pyroglutamic acid delivered, Cream base: 1% w/v in oil-in-water emulsion base
# Source text: Accordingly, [^3 H] esters of pyroglutamic acid were each dissolved at 1% w/v in anhydrous ethanol or in an oil-in-water emulsion base. […] The [^3 H] pyroglutamic acid was separated from unchanged ester by chromotography on AG1X8 resin and the amount delivered to the skin expressed as nmoles per mg of stratum corneum protein.
# [2] = In vitro delivery of pyroglutamic acid to stratum corneum of the rat (tritiated esters on newborn rat skin, resistant to 2 h water washing); format: in vitro ADME
# Protocol: In vitro evidence to confirm delivery of pyroglutamic acid to stratum corneum of the rat
# In an in vitro laboratory test, esters of pyroglutamic acid labelled with ^3 H on the pyroglutamic acid residue were applied as a 1% by weight solution in ethanol to newborn rat skin held in a glass cell, allowing the dermal side of the skin to be bathed in a buffered salts solution while the epidermal surface was exposed to normal atmospheric conditions. After 24 hours, samples of skin were taken and washed with continuous agitation in several charges of water at room temperature.
# Interfollicular epidermis was removed from these skin pieces by "freeze scraping"-which avoids contamination of the sample by follicular tissue or material trapped within the hair follicle. The epidermis was then extracted in methanol and the soluble extract analysed by column chromatography. The amount of tritiated pyroglutamic acid present in the epidermis in a form resistant to a period of 2 hours continuous washing with water was measured. The quantity of tritiated pyroglutamic acid delivered and retained by the skin in this way is recorded in Table 1 below: […]
Structure (SMILES),"Pyroglutamic acid delivered, Ethanol base [1] [n mol/mg protein]","Pyroglutamic acid delivered, Cream base [1] [n mol/mg protein]",Pyroglutamic acid delivered [2] [n moles/cm^2 skin],other results
"CCCCCCCCCCCCOC(=O)[C@@H]1CCC(=O)N1 [Dodecyl, pyroglutamic acid n-dodecyl ester]",4,1,–,–
"CCOC(=O)[C@@H]1CCC(=O)N1 [Pyroglutamic acid, ethyl ester, pyroglutamic acid ethyl ester]",8,5,–,"Pyroglutamic acid delivered ([2]; 1% by weight in ethanol, newborn rat skin, 24 hours, resistant to 2 hours continuous washing with water): 18 ± 5 n moles/cm^2 skin"
"COC(=O)[C@@H]1CCC(=O)N1 [Pyroglutamic acid, methyl ester, pyroglutamic acid methyl ester]",–,–,17 ± 5,–
"CCCCCCCCOC(=O)[C@@H]1CCC(=O)N1 [Pyroglutamic acid, n-octyl ester, pyroglutamic acid n-octyl ester]",4,1,36 ± 7,delivery to the stratum corneum of pyroglutamic acid which resisted washing out with water (in words) [2]: best result
"O=C1CCC(C(=O)O)N1 (stereo not shown) [pyroglutamic acid, 2-pyrrolidone-5-carboxylic acid, reference compound]",–,–,–,amount recovered from / reaching the stratum corneum following topical application (in words) [1]: little pyroglutamic acid reached the stratum corneum if applied as the free acid; amount recovered from / reaching the stratum corneum following topical application (in words) ([1]; listed as [^3 H] pyroglutamic acid): negligible amount

# The next lines start with results.
"Pyroglutamic acid delivered, Ethanol base [1] [n mol/mg protein]","Pyroglutamic acid delivered, Cream base [1] [n mol/mg protein]",Pyroglutamic acid delivered [2] [n moles/cm^2 skin],Structure (SMILES),other results
6,2,17 ± 8,"CCCCOC(=O)[C@@H]1CCC(=O)N1 [Pyroglutamic acid, n-butyl ester, pyroglutamic acid n-butyl ester]",–
5,2,32 ± 10,"CCCCCCOC(=O)[C@@H]1CCC(=O)N1 [Pyroglutamic acid, n-hexyl ester, pyroglutamic acid n-hexyl ester]",–
–,–,21 ± 8,"CCCOC(=O)[C@@H]1CCC(=O)N1 [Pyroglutamic acid, n-propyl ester, pyroglutamic acid n-propyl ester]",–
